{CDPI3-SO3} = negatively charged sulfonated CDPI3 minor groove binder; {CDPI4-(SO3)2} = disulfonated CDPI4 minor groove binder; {CDPI3(C)} = code of the source, not defined here; {CDPI3(N)} = code of the source, not defined here
Experiments:
[1] = system: complementary targets that contain A/C mismatch at positions 5, 6, 7 and 8; assay: Mismatch discrimination of oligonucleotide conjugates 5′-CCAAAATTAC-X^11-3′ hybridized to complementary targets (Example 4); type: binding; conditions: for ΔΔG° between match and mismatch: calculated at 50° C.
Experimental: This example illustrates conjugates of the present invention to perform mismatch discrimination.
Oligonucleotide conjugates 5′-CCAAAATTAC-X^11-3′ (SEQ ID NO:1), where X ^11 is a minor groove binder of FIG. 1, were hybridized to different complementary targets that contain A/C mismatch at positions 5, 6, 7 and 8, relative to the attached minor groove binder.
The relative free energy difference (ΔΔG°) between match and mismatch at positions 5, 6, 7 and 8 were calculated at 50° C. and are listed in Table below. The ΔΔG° values were calculated as described in U.S. application Ser. No. 09/796,988.
Table of ΔΔG° between match and mismatch calculated at 50° C. for different conjugates.

[2] = system: matched complement of ODN # 1; assay: Thermodynamic properties / mismatch discrimination of 3′-conjugated GGTTTTAATG-X″ sequences (Example 5, FIG. 2); type: binding; conditions: C/A mismatch at positions 5, 6, 7 and 8; 50° C.; PCR buffer; oligonucleotide 5×10^−7M; in words
Experimental: Thermodynamic properties of 3′ -conjugated, where X″ represents the attached minor groove binder which is either CDPI3 (C), CDPI3 (N) and CDPI4-(SO3^−)2. The parameters were determined at PCR buffer, where the oligonucleotide concentration was 5×10^−7M. The sequences below were hybridized to matched complement of ODN # 1. The relative free energy difference (ΔΔG°) between match and mismatch at positions 5, 6, 7 and 8 were calculated at 50° C. and plotted in FIG. 2. The bold C base in the sequences indicates the position of the C/A mismatch.

What does the source list for “CDPI3—SO3^−: Oligonucleotide conjugate 5′-CCAAAATTAC-X^11-3′, X^11 being the negatively charged minor groove binder CDPI3-SO3^− of FIG. 1 (3' {CDPI3-SO3}, sugars by position and backbone not given here)”?
ΔΔG° between match and mismatch ([1]; A/C mismatch position 5): 4.26 kcal/mol; ΔΔG° between match and mismatch ([1]; A/C mismatch position 6): 5.16 kcal/mol; ΔΔG° between match and mismatch ([1]; A/C mismatch position 7): 5.55 kcal/mol; ΔΔG° between match and mismatch ([1]; A/C mismatch position 8): 4.32 kcal/mol; mismatch discrimination performance versus the other conjugates in the Table ([1]; in words): comparable to the other conjugates

Which results are given for “CDPI3 (C): Oligonucleotide conjugate 5′-CCAAAATTAC-X^11-3′, X^11 being the minor groove binder CDPI3 (C) of FIG. 1 (3' {CDPI3(C)}, sugars by position and backbone not given here)”?
ΔΔG° between match and mismatch ([1]; A/C mismatch position 5): 4.87 kcal/mol; ΔΔG° between match and mismatch ([1]; A/C mismatch position 6): 6.22 kcal/mol; ΔΔG° between match and mismatch ([1]; A/C mismatch position 7): 6.24 kcal/mol; ΔΔG° between match and mismatch ([1]; A/C mismatch position 8): 5.52 kcal/mol

With “CDPI4-(SO3^−)2: 3′-conjugated oligonucleotide GGTTTTAATG-X″, X″ being the attached minor groove binder CDPI4-(SO3^−)2 (3' {CDPI4-(SO3)2}, sugars by position and backbone not given here)” as the substance, how does the “mismatch discrimination (ΔΔG° plotted in FIG. 2)” value [2] read?
The value was “comparable mismatch discrimination”.

For “CDPI3 (N): Oligonucleotide conjugate 5′-CCAAAATTAC-X^11-3′, X^11 being the minor groove binder CDPI3 (N) of FIG. 1 (3' {CDPI3(N)}, sugars by position and backbone not given here)”, which “ΔΔG° between match and mismatch” value ([1]; A/C mismatch position 5) is on record?
The value was 5.28 kcal/mol.

And the “ΔΔG° between match and mismatch” value ([1]; A/C mismatch position 6)?
The value was 6.32 kcal/mol.

And the “ΔΔG° between match and mismatch” value ([1]; A/C mismatch position 7)?
The value was 5.55 kcal/mol.

And the “ΔΔG° between match and mismatch” value ([1]; A/C mismatch position 8)?
The value was 5.51 kcal/mol.

From patent US7851606B2, “Negatively charged minor groove binders” (Elitech Holding B.V., priority 2002, dated 2010)
